Holding throughout (experiment): Eurofins kinase panel
Common to all, as to type: biochemical
What all share (settings): read-out: Inhibition rate (%)

Experiment [1] concerns the target T1, BRK(h) (Homo sapiens, UniProt Q13882).
T1 construct: purchased Eurofins (KinaseProfiler)

The target in experiment [2] is T2, IKKα(h) (Homo sapiens, UniProt O15111).
T2 construct: purchased Eurofins (KinaseProfiler)
T2 sequence (O15111 1-745): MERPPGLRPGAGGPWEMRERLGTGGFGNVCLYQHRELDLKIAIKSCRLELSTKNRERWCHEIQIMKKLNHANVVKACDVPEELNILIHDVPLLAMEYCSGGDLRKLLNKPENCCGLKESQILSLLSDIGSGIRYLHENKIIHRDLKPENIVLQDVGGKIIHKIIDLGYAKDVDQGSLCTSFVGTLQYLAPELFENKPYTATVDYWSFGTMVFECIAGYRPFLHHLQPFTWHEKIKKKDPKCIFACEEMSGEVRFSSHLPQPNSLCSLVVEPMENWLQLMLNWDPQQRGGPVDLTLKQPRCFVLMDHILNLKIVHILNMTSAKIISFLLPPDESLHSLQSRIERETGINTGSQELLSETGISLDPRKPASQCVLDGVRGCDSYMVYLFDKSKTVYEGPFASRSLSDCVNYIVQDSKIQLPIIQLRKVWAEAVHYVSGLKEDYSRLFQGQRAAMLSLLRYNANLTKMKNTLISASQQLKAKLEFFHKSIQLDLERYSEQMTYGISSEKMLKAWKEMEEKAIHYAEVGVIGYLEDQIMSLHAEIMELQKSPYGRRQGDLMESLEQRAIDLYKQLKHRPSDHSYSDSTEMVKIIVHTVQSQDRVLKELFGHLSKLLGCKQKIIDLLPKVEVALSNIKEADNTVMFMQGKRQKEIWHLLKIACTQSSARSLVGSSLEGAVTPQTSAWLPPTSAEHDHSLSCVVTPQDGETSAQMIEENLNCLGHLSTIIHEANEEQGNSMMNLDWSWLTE

Experiment [3] deals with T3, JAK1(h) (Homo sapiens, UniProt P23458).
T3 construct: purchased Eurofins (KinaseProfiler)
T3 sequence (P23458 whole entry): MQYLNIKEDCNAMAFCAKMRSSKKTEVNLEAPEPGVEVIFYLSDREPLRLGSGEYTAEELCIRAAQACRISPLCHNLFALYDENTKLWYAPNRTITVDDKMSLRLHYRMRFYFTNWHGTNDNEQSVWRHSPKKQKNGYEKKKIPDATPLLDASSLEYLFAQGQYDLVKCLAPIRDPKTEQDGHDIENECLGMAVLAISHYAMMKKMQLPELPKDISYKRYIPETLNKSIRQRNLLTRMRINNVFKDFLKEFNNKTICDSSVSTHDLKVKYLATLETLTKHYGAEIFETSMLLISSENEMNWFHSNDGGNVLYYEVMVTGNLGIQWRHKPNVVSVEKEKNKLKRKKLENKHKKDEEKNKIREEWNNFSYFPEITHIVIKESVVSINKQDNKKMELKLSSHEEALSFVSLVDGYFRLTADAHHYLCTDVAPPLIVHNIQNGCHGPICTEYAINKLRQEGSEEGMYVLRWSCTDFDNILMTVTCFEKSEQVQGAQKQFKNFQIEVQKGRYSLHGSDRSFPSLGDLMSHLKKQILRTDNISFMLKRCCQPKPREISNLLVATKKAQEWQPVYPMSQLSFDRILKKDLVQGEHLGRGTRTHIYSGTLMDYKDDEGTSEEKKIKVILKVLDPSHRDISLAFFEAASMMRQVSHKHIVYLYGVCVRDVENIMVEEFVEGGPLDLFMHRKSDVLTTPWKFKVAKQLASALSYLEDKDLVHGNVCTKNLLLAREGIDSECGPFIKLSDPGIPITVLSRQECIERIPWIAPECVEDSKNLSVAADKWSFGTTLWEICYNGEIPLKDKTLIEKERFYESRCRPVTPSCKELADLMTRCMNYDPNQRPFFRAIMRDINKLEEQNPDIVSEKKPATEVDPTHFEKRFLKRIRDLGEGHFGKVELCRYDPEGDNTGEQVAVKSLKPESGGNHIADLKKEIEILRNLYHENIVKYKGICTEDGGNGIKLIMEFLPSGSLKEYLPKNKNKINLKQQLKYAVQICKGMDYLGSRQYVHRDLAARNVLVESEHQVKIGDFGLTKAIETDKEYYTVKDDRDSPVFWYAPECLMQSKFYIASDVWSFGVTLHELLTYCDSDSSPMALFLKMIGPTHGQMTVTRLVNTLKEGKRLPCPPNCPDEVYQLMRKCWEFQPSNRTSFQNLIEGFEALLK

Experiment [4] concerns the target T4, PKA(h) (Homo sapiens, UniProt P17612).
T4 construct: purchased Eurofins (KinaseProfiler)

Experiment [5] concerns the target T5, PKCβII(h) (Homo sapiens, UniProt P05771).
T5 construct: purchased Eurofins (KinaseProfiler)

For experiment [6], the target named is T6, PKCζ(h) (Homo sapiens, UniProt Q05513).
T6 construct: purchased Eurofins (KinaseProfiler)
T6 sequence (Q05513 1-592): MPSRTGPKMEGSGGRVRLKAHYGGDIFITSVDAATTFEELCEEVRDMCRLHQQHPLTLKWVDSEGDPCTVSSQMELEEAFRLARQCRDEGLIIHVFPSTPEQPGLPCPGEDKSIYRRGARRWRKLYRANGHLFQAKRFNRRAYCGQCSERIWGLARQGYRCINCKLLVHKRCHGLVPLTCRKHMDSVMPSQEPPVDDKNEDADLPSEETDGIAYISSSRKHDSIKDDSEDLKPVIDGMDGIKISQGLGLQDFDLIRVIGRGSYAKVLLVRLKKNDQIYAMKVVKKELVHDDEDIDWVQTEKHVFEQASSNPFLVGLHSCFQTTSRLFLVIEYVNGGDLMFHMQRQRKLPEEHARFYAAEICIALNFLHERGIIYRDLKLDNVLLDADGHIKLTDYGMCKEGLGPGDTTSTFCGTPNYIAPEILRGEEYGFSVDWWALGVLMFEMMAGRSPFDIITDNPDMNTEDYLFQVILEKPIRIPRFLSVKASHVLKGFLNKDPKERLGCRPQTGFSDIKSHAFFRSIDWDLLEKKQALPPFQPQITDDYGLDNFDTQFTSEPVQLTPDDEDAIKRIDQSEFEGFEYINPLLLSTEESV

The target of experiment [7] is T7, PRKG2(h) (Homo sapiens, UniProt Q13237).
T7 construct: purchased Eurofins (KinaseProfiler)
T7 sequence (Q13237 1-762): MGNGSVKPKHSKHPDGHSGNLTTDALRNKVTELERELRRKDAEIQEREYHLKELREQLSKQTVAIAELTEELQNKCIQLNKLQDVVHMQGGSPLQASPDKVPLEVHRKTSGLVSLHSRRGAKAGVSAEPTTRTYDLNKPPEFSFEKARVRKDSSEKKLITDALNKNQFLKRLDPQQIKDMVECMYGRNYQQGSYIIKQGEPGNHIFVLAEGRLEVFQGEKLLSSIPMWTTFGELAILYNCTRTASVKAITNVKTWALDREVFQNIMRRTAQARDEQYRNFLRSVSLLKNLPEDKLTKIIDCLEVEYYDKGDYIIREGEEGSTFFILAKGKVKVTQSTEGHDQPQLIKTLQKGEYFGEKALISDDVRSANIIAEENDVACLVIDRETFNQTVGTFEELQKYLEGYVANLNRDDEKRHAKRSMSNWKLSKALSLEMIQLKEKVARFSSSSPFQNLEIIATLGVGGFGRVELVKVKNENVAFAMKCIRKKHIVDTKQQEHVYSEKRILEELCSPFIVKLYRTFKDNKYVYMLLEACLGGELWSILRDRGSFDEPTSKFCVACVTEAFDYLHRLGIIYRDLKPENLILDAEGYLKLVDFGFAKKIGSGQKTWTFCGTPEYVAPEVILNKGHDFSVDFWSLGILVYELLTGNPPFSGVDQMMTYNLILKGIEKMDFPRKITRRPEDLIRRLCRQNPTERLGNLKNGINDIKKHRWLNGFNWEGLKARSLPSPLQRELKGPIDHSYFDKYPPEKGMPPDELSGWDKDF

For orientation: inhibition means the drop in the measured response relative to a control, in per cent.

T1 sequence (Q13882 whole entry): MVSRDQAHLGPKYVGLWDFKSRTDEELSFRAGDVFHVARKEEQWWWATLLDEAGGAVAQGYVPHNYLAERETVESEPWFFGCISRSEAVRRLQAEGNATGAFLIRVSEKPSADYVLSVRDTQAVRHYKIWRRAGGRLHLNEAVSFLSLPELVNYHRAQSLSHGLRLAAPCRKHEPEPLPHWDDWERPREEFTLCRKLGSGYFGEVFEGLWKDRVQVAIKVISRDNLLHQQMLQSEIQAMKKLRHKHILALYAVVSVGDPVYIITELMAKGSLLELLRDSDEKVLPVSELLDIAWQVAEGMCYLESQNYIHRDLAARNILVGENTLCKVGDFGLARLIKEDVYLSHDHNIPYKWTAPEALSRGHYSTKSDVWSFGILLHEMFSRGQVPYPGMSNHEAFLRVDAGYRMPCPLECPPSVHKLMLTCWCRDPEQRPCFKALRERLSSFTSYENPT
T5 sequence (P05771 1-673 isoform P05771-2): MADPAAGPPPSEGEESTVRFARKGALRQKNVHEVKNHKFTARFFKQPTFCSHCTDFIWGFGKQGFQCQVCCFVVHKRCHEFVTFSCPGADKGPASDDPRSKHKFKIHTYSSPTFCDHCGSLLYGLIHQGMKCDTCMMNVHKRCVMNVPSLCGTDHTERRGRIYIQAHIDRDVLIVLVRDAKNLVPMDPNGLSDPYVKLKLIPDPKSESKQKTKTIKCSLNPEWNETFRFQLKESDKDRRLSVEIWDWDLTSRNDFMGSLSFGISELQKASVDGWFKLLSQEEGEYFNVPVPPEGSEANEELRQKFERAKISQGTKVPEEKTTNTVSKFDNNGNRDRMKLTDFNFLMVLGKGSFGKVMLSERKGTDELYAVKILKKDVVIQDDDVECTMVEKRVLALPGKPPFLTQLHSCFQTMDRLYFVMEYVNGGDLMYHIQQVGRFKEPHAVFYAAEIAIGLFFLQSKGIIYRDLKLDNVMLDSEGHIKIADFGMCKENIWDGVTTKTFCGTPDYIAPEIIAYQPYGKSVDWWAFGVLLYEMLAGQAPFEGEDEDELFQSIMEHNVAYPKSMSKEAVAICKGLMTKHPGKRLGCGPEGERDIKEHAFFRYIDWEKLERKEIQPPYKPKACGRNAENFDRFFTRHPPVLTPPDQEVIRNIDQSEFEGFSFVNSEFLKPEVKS

With `COc1cc(OC)c(Cl)c(-c2ccc3c(NC(=O)c4ccc(N5CCNC(C)(C)C5)cc4)n[nH]c3n2)c1Cl` [3D185], the inhibition at 0.01 µM in experiment [1] (10 nM) is -5%; in experiment [2] (10 nM) it was -3%; in experiment [3] (10 nM), 13%; in experiment [4] (10 nM) it was 5%; in experiment [5] (10 nM), -12%; in experiment [6] (10 nM), -11%. In addition, the inhibition at 0.01 µM in experiment [7] (10 nM) worked out at 1%. The inhibition at 0.1 µM is 7% in experiment [1] (100 nM); -3% in experiment [2] (100 nM); 15% in experiment [3] (100 nM); -8% in experiment [4] (100 nM); -1% in experiment [5] (100 nM); 7% in experiment [6] (100 nM). Moreover, the inhibition at 0.1 µM in experiment [7] (100 nM) was 3%. The inhibition at 1 µM is 46% in experiment [1] (1000 nM); -7% in experiment [2] (1000 nM); 20% in experiment [3] (1000 nM); 5% in experiment [4] (1000 nM); -8% in experiment [5] (1000 nM); -22% in experiment [6] (1000 nM). Besides, in experiment [7] (1000 nM), the inhibition at 1 µM is 3%.
